Assay results: patent US20170121385A1 (Oxeia Biopharmaceuticals, Inc., priority 2015, published 2017)
Like-named read-outs stand apart in the source and are kept apart here.

Columns and labels:
GHS-R = GHS-R (Homo sapiens, UniProt Q92847); assay: GHS-R antagonist activity in a cell based assay; settings: GHS-R modulating compounds
severe TBI [1] = assay: severe TBI model (brain tissue loss, apoptosis, balance beam foot faults, edema); format: in vivo, mice; settings: as low as 20 μg/kg in two doses early after injury; pre-clinical modeling
Source text: In a series of publications, the Bansal laboratory has shown that exogenously dosed ghrelin confers significant neuroprotective benefits following severe TBI. […] Severe TBI causes significant tissue necrosis and neuron loss secondary to edema and apoptosis. […] Severe TBI induces apoptosis within the neocortex (TUNEL staining green). […] Severe TBI caused significant neurocognitive defects (as measured by foot faults on a balance beam assay) on post-TBI Day 1, 3 and 7 compared to sham.

severe TBI [2] = settings: cited from earlier work; for brain tissue loss / loss of brain volume: 7 days following injury, 10 minutes and 1 hour after TBI; for brain tissue loss / loss of brain volume / apoptosis in the neocortex (TUNEL staining): ghrelin 20 μg/kg; for apoptosis in the neocortex (TUNEL staining): two doses
mild TBI [3] = assay: mild TBI model (controlled cortical impactor), whole brain oxidative burst assay by flow cytometry; format: in vivo, mouse
Procedure: In a mild TBI model, ghrelin therapy provided significant neuroprotective effects. Using a controlled cortical impactor, with standardized settings (5.0 m/s, a 3 mm diameter impounder tip, a depth of 1.0 mm, and a dwell time of 0.2 milliseconds), a mouse mild brain injury was elicited in three groups (n=5 in each group), sham, mTBI only, mTBI with 2 doses of ghrelin (50 μg/kg) 10 minutes and 1 hour after injury. Animals were sacrificed after 24 hours and whole brain reactive oxygen species was assessed by an oxidative burst assay as measured by flow cytometry. […] Ghrelin therapy decreased mTBI oxidative burst to sham levels 3,300 MFI (SEM 1,000); p<0.05 mTBI compared to drug treated.

[4] = human, in vivo; cited from earlier work
rodent brain injury = settings: cited from earlier work
mild TBI [5] = assay: mild TBI model, myeloperoxidase (MPO) and Gr-1 (neutrophil) staining in the hippocampus; format: in vivo, mouse; settings: same three animal groups
Procedure: In a mild TBI model, ghrelin therapy provided significant neuroprotective effects. Using a controlled cortical impactor, with standardized settings (5.0 m/s, a 3 mm diameter impounder tip, a depth of 1.0 mm, and a dwell time of 0.2 milliseconds), a mouse mild brain injury was elicited in three groups (n=5 in each group), sham, mTBI only, mTBI with 2 doses of ghrelin (50 μg/kg) 10 minutes and 1 hour after injury. Ghrelin reduces oxidative burst (a measure of ROS) following mild TBI in animal models. Oxidative burst was determined 24 hours following mild TBI in three groups via flow cytometry. […] In separate experiments, using the same three animal groups, myeloperoxidase (MPO) and Gr-1 (neutrophil) staining were conducted in the hippocampus. […] Myeloperoxidase (MPO) is a potent enzyme in neutrophils and […] that forms hypochlorous acid (ROS). […] Ghrelin therapy reduced MPO staining. These observations built upon previous work showing ghrelin's protective effect following severe TBI models, stroke and other neurodegenerative diseases.

Chain of GHS-R (Q92847 whole entry, species assumed): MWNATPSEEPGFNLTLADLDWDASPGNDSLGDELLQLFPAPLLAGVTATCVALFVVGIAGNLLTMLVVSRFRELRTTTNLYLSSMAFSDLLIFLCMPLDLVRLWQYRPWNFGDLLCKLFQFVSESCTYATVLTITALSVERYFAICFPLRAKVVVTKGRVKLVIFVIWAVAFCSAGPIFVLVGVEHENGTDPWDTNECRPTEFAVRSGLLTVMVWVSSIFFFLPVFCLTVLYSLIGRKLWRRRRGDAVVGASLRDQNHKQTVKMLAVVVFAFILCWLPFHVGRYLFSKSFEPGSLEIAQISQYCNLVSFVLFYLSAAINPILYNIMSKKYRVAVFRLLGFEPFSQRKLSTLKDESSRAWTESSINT

Row | Compound | Ki (GHS-R) | post-severe TBI edema (severe TBI [1]) | brain tissue loss / loss of brain volume (severe TBI [2]; listed as ghrelin) | brain tissue loss / loss of brain volume (severe TBI [2]) | invasion of inflammatory cells (severe TBI [2]) | apoptosis in the neocortex (TUNEL staining) (severe TBI [2]; listed as ghrelin) | apoptosis in the neocortex (TUNEL staining) (severe TBI [2]) | neurocognitive function (foot faults on a balance beam assay) (severe TBI [2]; post-TBI Day 1, 3 and 7, ghrelin dosed only at Day 0, listed as ghrelin) | neurocognitive function (foot faults on a balance beam assay) (severe TBI [2]; post-TBI Day 1, 3 and 7, ghrelin dosed only at Day 0) | efficacy in mTBI (mild TBI [3]; 50 μg/kg, two doses administered within 24 hours of injury, initial pre-clinical experiments) | oxidative burst (a measure of ROS) following mild TBI (mild TBI [3]; 24 hours following mild TBI, flow cytometry) | oxidative burst (whole brain reactive oxygen species) (mild TBI [3]; mouse mTBI, 2 doses of ghrelin (50 μg/kg) 10 minutes and 1 hour after injury, sacrificed after 24 hours, flow cytometry, n=5) | serious adverse events [4] | side effects observed [4] | ROS accumulation (rodent brain injury) | neuro-cognitive function (rodent brain injury) | neuron tissue loss (rodent brain injury) | neuronal apoptosis (rodent brain injury) | MPO staining in the hippocampus (mild TBI [5]) | neutrophil infiltration (Gr-1 staining) in the hippocampus (mild TBI [5])
1 | CCN(CC)CCCS(=O)(=O)N[C@H](CCc1ccccc1)c1nc(-c2cncc(Br)c2)no1 [Compound 103] | 100 to 500 nM | – | – | – | – | – | – | – | – | – | – | – | – | – | – | – | – | – | – | –
2 | Ghrelin (GSSFLSPEHQRVQQRKESKKPPAKLQPR; Ghrelin-28; UniProt Q9UBU3 24-51, looked up) | – | significant decrease | significantly less | significantly decreased | decreased | significantly less | significantly reduced | improved | prevented neurocognitive decline to levels of sham | efficacy | significantly reduced | 3,300 MFI | no serious adverse events | only transient gastrointestinal symptoms | prevents | improves | decreases | prevents | significant reduction | significant reduction
